Measured values: PMC2810346 (Journal of the American Chemical Society, 2010)
Each block holds one compound with its values, some of them ahead of it. Peptide text beside a SMILES is read from it.

How the values were obtained:
[1] = system: HIF-1α induced transcription of VEGF gene in HeLa cells; details: ref [18]; cited from earlier work
[2] = format: physicochemical; details: 10% trifluoroethanol in phosphate buffered saline (pH 6.3); for % helicity: circular dichroism, estimated from mean residue ellipticity at 222 nm
[3] = system: HIF-1α induced transcription of VEGF gene in HeLa cells; format: cell-based; details: qRT-PCR, hypoxic conditions (DFO), 12 and 24 h incubation
[4] = molecular target: GST-p300 (p300 CH1 domain) (Homo sapiens, UniProt Q09472); assay: Isothermal titration microcalorimetry; format: binding; details: for affinity for GST-p300 (in words): isothermal titration microcalorimetry
GST-p300 (p300 CH1 domain), sequence (Q09472 331-417 limits assumed): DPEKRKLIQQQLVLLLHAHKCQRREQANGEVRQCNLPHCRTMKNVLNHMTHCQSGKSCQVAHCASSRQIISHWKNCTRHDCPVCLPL

[5] = system: cell density and population doubling; assay: Cell viability assay; format: cell-based; details: monitored up to 72 h, 1 μM peptide, 200 nM chetomin
[6] = system: GST-p300; CH1 domains of CBP (or p300); assay: CD spectrum of GST-p300 / CH1 structural change on addition of compound; details: circular dichroism of GST-p300 with HBS 2 added

Compound: CN1C(=O)[C@]2(Cc3cn([C@]45C[C@@]67SS[C@@](CO)(C(=O)N6[C@H]4Nc4ccccc45)N(C)C7=O)c4ccccc34)SS[C@@]1(CO)C(=O)N2C [chetomin]
inhibition of VEGF transcription, literature (in words) [1]: known potent inhibitor of VEGF transcription

% helicity [2]: 40% | affinity for GST-p300 (in words) [4]: submicromolar affinity
Compound: C[C@H](NC(=O)[C@H](CC(N)=O)NC(=O)[C@H](Cc1ccc(O)cc1)NC(=O)[C@H](CCC(=O)O)NC(=O)[C@H](CS)NC(=O)[C@H](CC(=O)O)NC(=O)[C@H](C)N1C/C=C/CCC(=O)N[C@@H]([C@@H](C)O)C(=O)N[C@@H](C)C1=O)C(N)=O [compound 1]
inhibition of VEGF transcription (in words) [3]: did not show measurable inhibition of transcription

Compound: C[C@H](NC(=O)[C@H](CC(N)=O)NC(=O)[C@H](Cc1ccc(O)cc1)NC(=O)[C@H](CCC(=O)O)NC(=O)[C@H](CS)NC(=O)[C@H](CC(=O)O)NC(=O)[C@H](C)N1C/C=C/CCC(=O)N[C@@H]([C@@H](C)O)C(=O)N[C@@H](C)C1=O)C(=O)N[C@@H](CCCNC(=N)N)C(N)=O [compound 2]
solution conformation by CD (in words) ([2]; listed as HBS 2): more helical than HBS 1 | % helicity [2]: 53% | cytotoxicity (in words) [5]: does not display significant cytotoxicity | effect on CD spectrum of GST-p300 (in words) [6]: does not alter the CD spectrum of GST-p300 | affinity for GST-p300 (in words) [4]: does not have a detrimental effect on the ability of HBS 2 to bind GST-p300

Kd [4]: 825 ± 50 nM
Compound: CC(=O)N[C@H](C(=O)N[C@@H](C)C(=O)N[C@@H](C)C(=O)N[C@@H](CC(=O)O)C(=O)N[C@@H](CS)C(=O)N[C@@H](CCC(=O)O)C(=O)N[C@@H](Cc1ccc(O)cc1)C(=O)N[C@@H](CC(N)=O)C(=O)N[C@@H](C)C(=O)N[C@@H](CCCNC(=N)N)C(=O)O)[C@@H](C)O [compound 4] (Ac-TAADCEYNAR-OH)
